Assay results reported in patent US5308856A, “Thiazolidine-2,4-dione derivatives, salts and preparation processes thereof” (Kyorin Pharmaceutical Co., Ltd., priority 1991, dated 1994).

Legend:
blood glucose [1] = assay: Enhancement of Insulin Sensitivity in Rats; assay type: in vivo; conditions: 10 mg/kg/day p.o. once daily 5 days, fasted 18 h, insulin 0.1 unit/kg i.p., n = 5, *P < 0.01, reference (insulin only) 11.0 ± 0.8
Procedure: Enhancement of Insulin Sensitivity in Rats
After rats were orally administered with the compound of Example 1 once daily for 5 days at 10 mg/kg/day, they were fasted for 18 hours and then insulin was intraperitoneally injected at 0.1 unit/kg. Blood samples were collected from the tail vein 0 and 1 hour after the injection of insulin for the determination of blood glucose (Table 1).

blood glucose [2] = assay: Improvement of Glucose Tolerance in Genetically Obese Mice (OGTT); assay type: in vivo, Genetically obese mice (CS57BL ob/ob mice); conditions: ob/ob mice, fasted 18 h, glucose 2 g/kg p.o.
Procedure: Improvement of Glucose Tolerance in Genetically Obese Mice
Genetically obese mice (CS57BL ob/ob mice) were orally administered with the compound of Example 1 once daily for 5 days at 10, 30 or 100 mg/kg/day, respectively. They were fasted for 18 hours and then 2 g/kg of glucose was orally administered. Blood samples were collected from the tail vein 0, 30, 60 and 120 minutes after the administration of glucose for the determination of blood glucose (Table 2).

[3] = target: T1, aldose reductase extracted from rat lens (Rattus norvegicus, UniProt P07943); assay: Inhibition of Aldose Reductase in Vitro; assay type: biochemical
T1 construct: aldose reductase extracted from rat lens; from tissue; host or cells: rat lens
From the text: Inhibition of Aldose Reductase in Vitro
According to the method of Hyman and Kinoshita (J. Biol. Chem., 240, 877, 1965), inhibitory activity of the compound of Example 23 on aldose reductase extracted from rat lens was investigated. As a result, the following IC50 value was obtained (Table 3).

**Q.** What does the source list for O=C1NC(=O)C(c2ccc(N3Cc4ccccc4C3=O)cc2)S1 (centres unmarked) [Example 1, 5-(4-(1-Oxoisoindoline-2-yl)Phenyl)Thiazolidine-2,4-Dione]?
**A.** 0 hour value-1 hour value (blood glucose) (blood glucose [1]): 23.0 ± 1.2 mg %; OGTT (% of control) (blood glucose [2]; 10 mg/kg/day p.o. once daily 5 days): 98.2 % of control; OGTT (% of control) (blood glucose [2]; 30 mg/kg/day p.o. once daily 5 days): 84.1 % of control; OGTT (% of control) (blood glucose [2]; 100 mg/kg/day p.o. once daily 5 days): 81.1 % of control; IC50 [3]: 90 nM
